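Compound exposure: 48 hours, 5 concentrations, 96-well plates. The concentration for 50% growth inhibition is given as GI50.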 Calls of active or inactive are those of the source. Rule as the data show it: active = GI50 up to about 1.1 µM and inactive = higher.

Holding throughout (assay): growth of human tumour cells (NCI), 48 h
Experiment [1] relates to DU-145.
The subject of experiment [2] is UO-31.
In experiment [3] the test system is HOP-92.
Experiment [4] relates to SK-MEL-5.
Experiment [5] concerns KM12.
For experiment [6], the system named is OVCAR-3.
In experiment [7] the test system is SW-620.
The test system of experiment [8] is MDA-N.
Experiment [9] relates to HCT-15.
Experiment [10] concerns UACC-62.
Experiment [11] concerns TK-10.
Experiment [12] relates to NCI/ADR-RES.
The subject of experiment [13] is IGROV-1.
Experiment [14] concerns SK-MEL-2.
For experiment [15], the system named is MDA-MB-435.
In experiment [16] the test system is HOP-62.
The test system of experiment [17] is HT-29.
Experiment [18] relates to NCI-H522.
The subject of experiment [19] is MOLT-4.

With `O=C(CON1C(=O)c2ccccc2C1=O)c1ccccc1`, the GI50 in [1] was > 100 µM (inactive); in experiment [2], 21.3 µM (inactive); in [3] it was 58.6 µM (inactive); in [4], > 100 µM (inactive); in [5], > 100 µM (inactive); in [6], 49.9 µM (inactive). Besides, the GI50 in [7] is 24.3 µM (inactive); in experiment [8] it was > 100 µM (inactive); in experiment [9] it was above 100 µM; in [10] it was > 100 µM (inactive); in experiment [11], 20.7 µM (inactive); in experiment [12] it was > 100 µM (inactive). Also, the GI50 in experiment [13] is > 100 µM (inactive); in experiment [14], > 100 µM (inactive); in [15] it was 42 µM (inactive); in experiment [16] it was > 100 µM (inactive); in experiment [17] it was 48.3 µM (inactive); in experiment [18], 17.7 µM (inactive).

On to `Brc1ccc(CCNCCN2CCCCC2)cc1`, for which the GI50 is 35.6 µM (inactive) in [1]; 12.2 µM (inactive) in [2]; 10.8 µM (inactive) in [3]; 8.07 µM (inactive) in [4]; 16.6 µM (inactive) in experiment [5]; 15.4 µM (inactive) in experiment [6]. The GI50 in [7] was 17 µM (inactive); in experiment [8], 10.7 µM (inactive); in [9], 18.1 µM; in experiment [19], 62.1 µM (inactive); in experiment [11], 15.5 µM (inactive); in experiment [12], 21.1 µM (inactive). The GI50 in [13] is 17.1 µM (inactive); in experiment [14], 19.4 µM (inactive); in experiment [15], 5.47 µM (inactive); in experiment [16], 20.4 µM (inactive); in experiment [17], 4 µM (inactive); in experiment [18], 16.4 µM (inactive).

On to `Cc1nn2c(=O)c([N+](=O)[O-])c(/C=C/c3ccccc3)nc2s1`, for which the GI50 in [1] is 3.74 µM (inactive); in experiment [2], 5.83 µM (inactive); in experiment [3], 8.28 µM (inactive); in [4] it was 3.69 µM (inactive); in [5], 3.13 µM (inactive); in [6] it was 4.95 µM (inactive). Moreover, the GI50 was 5.24 µM (inactive) in experiment [7]; 2.4 µM (inactive) in experiment [8]; 3.08 µM in experiment [9]; 2.98 µM (inactive) in experiment [19]; 5.33 µM (inactive) in experiment [10]; 7.31 µM (inactive) in [11]. Further, the GI50 was 3.56 µM (inactive) in experiment [12]; 5.51 µM (inactive) in experiment [13]; 3.1 µM (inactive) in [14]; 2 µM (inactive) in experiment [15]; 5.43 µM (inactive) in experiment [16]; 3.04 µM (inactive) in experiment [17]. The GI50 in [18] was 3.3 µM (inactive).

Turning to `COc1cc(C2c3cc4c(cc3OC3(OC)COC(=O)C23)OCO4)cc(OC)c1OC(C)=O` (stereo unspecified), the GI50 in experiment [1] was 2.52 µM (inactive); in experiment [2], 6.28 µM (inactive); in [3], 51.2 µM (inactive); in [4] it was 0.726 µM (active); in experiment [5], 0.881 µM (active); in [6], 1.3 µM (inactive). Moreover, the GI50 in [7] is 0.552 µM (active); in [8], 0.206 µM (active); in experiment [9], 0.798 µM; in [19] it was 3.96 µM (inactive); in experiment [10], 4.78 µM (inactive); in experiment [11], 19.3 µM (inactive). Moreover, the GI50 in experiment [12] was 0.323 µM (active); in [13], 2.21 µM (inactive); in experiment [14], 1.84 µM (inactive); in [15], 0.331 µM (active); in experiment [16] it was 0.8 µM (active); in experiment [17] it was 2.47 µM (inactive). For the same molecule, the GI50 in [18] was 0.263 µM (active).

Consider `C[C@H](C(=O)N1C(=O)O[C@@H](c2ccccc2)[C@H]1C)[C@H](c1ccccc1)N(Cc1ccccc1)OC(=O)c1ccccc1`, for which the GI50 in experiment [1] is 66.1 µM (inactive); in experiment [2], 34.8 µM (inactive); in experiment [3], 24.4 µM (inactive); in experiment [4], 21 µM (inactive); in experiment [5], 49.3 µM (inactive); in experiment [7], 70.3 µM (inactive). Further, the GI50 in experiment [8] is 48.9 µM (inactive); in experiment [9], 29.6 µM; in [19] it was 22.1 µM (inactive); in [10] it was 28.6 µM (inactive); in experiment [11] it was 90.6 µM (inactive); in experiment [12], 30.3 µM (inactive). Also, the GI50 is 29.2 µM (inactive) in [13]; 22.1 µM (inactive) in experiment [14]; 49.4 µM (inactive) in experiment [15]; 18.9 µM (inactive) in experiment [16]; 26.4 µM (inactive) in [17]; 29.1 µM (inactive) in [18].

Turning to `Nc1c2cc3ccc2nc2ccc(cc12)OCCOCCOCCOCCOCCOCCO3`, the GI50 in experiment [1], in experiment [3], in [4], in [5], in experiment [6] and in [7] was > 10 µM (inactive) each time. For the same molecule, the GI50 in experiment [8] is > 10 µM (inactive); in experiment [9] it was above 10 µM; in [19], > 10 µM (inactive); in experiment [10] it was > 10 µM (inactive); in [11], > 10 µM (inactive); in experiment [12], > 10 µM (inactive). Moreover, the GI50 in experiment [13], in [14], in experiment [15], in experiment [16], in experiment [17] and in experiment [18] was > 10 µM (inactive) each time.

Turning to `Cc1[nH]n(-c2nc(O)c(-c3ccccc3)c(=O)[nH]2)c(=O)c1CCO`, the GI50 in experiment [1], in [2], in [3], in [4], in [5] and in experiment [7] was > 100 µM (inactive) throughout. The GI50 in [8] is > 100 µM (inactive); in experiment [9] it was above 100 µM; in experiment [19] it was > 100 µM (inactive); in experiment [10] it was > 100 µM (inactive); in experiment [11], > 100 µM (inactive); in experiment [12], > 100 µM (inactive). For the same molecule, the GI50 in [13], in experiment [14], in experiment [15], in experiment [17] and in experiment [18] was > 100 µM (inactive) in each case.

Take `COc1cccc(N2C(=O)C3c4[nH]c5ccccc5c4C4CCCC4C3C2=O)c1` (stereo unspecified): the GI50 is > 10 µM (inactive) in experiment [1]; 3.59 µM (inactive) in experiment [3]; > 10 µM (inactive) in [4]; > 10 µM (inactive) in [5]; 2.36 µM (inactive) in experiment [6]; 7.98 µM (inactive) in [7]. For the same molecule, the GI50 in experiment [8] is > 10 µM (inactive); in experiment [9], above 10 µM; in experiment [19], > 10 µM (inactive); in [10], > 10 µM (inactive); in experiment [11], > 10 µM (inactive); in [12], 3.8 µM (inactive). Further, the GI50 in [13] was 6.71 µM (inactive); in [14] it was > 10 µM (inactive); in experiment [15], > 10 µM (inactive); in [16], 2.52 µM (inactive); in [17], 5.69 µM (inactive); in [18] it was > 10 µM (inactive).

Regarding `COc1ccc2oc3c(C)cc4c(OC)nnc(OC)c4c3c2c1`, the GI50 in [1] was > 100 µM (inactive); in [2], 6.93 µM (inactive); in [3] it was 10.9 µM (inactive); in experiment [4], 6.15 µM (inactive); in experiment [5], 27.4 µM (inactive); in experiment [6], > 100 µM (inactive). The GI50 in experiment [7] was 7.57 µM (inactive); in [8], 18 µM (inactive); in experiment [9] it was 7.83 µM; in [19] it was 2.81 µM (inactive); in experiment [10] it was 9.31 µM (inactive); in experiment [11] it was 16.9 µM (inactive). Moreover, the GI50 in [12] is 18.4 µM (inactive); in [14] it was 82.4 µM (inactive); in experiment [15], 25.4 µM (inactive); in experiment [16], 17.7 µM (inactive); in [17], 4.57 µM (inactive); in experiment [18], 6.76 µM (inactive).

As for `COc1ccc(CCN2COc3ccc4ccc(=O)oc4c3C2)cc1OC`, the GI50 is > 100 µM (inactive) in experiment [1]; > 100 µM (inactive) in experiment [2]; 21 µM (inactive) in [3]; 58.1 µM (inactive) in experiment [4]; > 100 µM (inactive) in experiment [5]; > 100 µM (inactive) in [6]. In addition, the GI50 in experiment [7] was 24.2 µM (inactive); in experiment [8], > 100 µM (inactive); in experiment [9], above 100 µM; in experiment [19], > 100 µM (inactive); in [10], 50.2 µM (inactive); in experiment [11], > 100 µM (inactive). Besides, the GI50 is > 100 µM (inactive) in [12]; > 100 µM (inactive) in experiment [13]; > 100 µM (inactive) in [14]; > 100 µM (inactive) in [15]; > 100 µM (inactive) in experiment [16]; 78.5 µM (inactive) in experiment [17]. Besides, in [18], the GI50 was > 100 µM (inactive).

As to `c1cc(-c2ccc(-c3nc4ccc(C5=NCCN5)cc4s3)s2)ccc1C1=NCCN1`, the GI50 in experiment [1] was 0.19 µM (active); in experiment [2], 1.02 µM (active); in [3] it was 0.299 µM (active); in [4], 0.955 µM (active); in experiment [5] it was 0.565 µM (active); in [6], 0.979 µM (active). Besides, the GI50 was 1.02 µM (active) in [7]; 0.723 µM (active) in experiment [8]; 2.17 µM in [9]; 0.0968 µM (active) in experiment [19]; 1.12 µM (inactive) in experiment [10]; 0.804 µM (active) in experiment [11]. In addition, the GI50 is 5.53 µM (inactive) in experiment [12]; 0.313 µM (active) in [13]; 1.27 µM (inactive) in [14]; 0.841 µM (active) in [15]; 0.187 µM (active) in [16]; 0.596 µM (active) in experiment [17]. In [18], the GI50 is 0.114 µM (active).
